Data as given in PubChem BioAssay AID1259407 (Chemical Carcinogenesis Research Information System (CCRIS), 2018).
The source made the active and inactive calls. The rule behind the calls is not given here.

Tested on: CCRIS mutagenicity, Ames/micronucleus/aberration tests
Experiment: CCRIS mutagenicity studies
[1] = Test System: AMES SALMONELLA TYPHIMURIUM, Strain/Indicator: TA100, Metabolic Activation: HAMSTER, LIVER, S-9, AROCLOR 1254 (10%), Method: PREINCUBATION
[2] = Test System: AMES SALMONELLA TYPHIMURIUM, Strain/Indicator: TA100, Metabolic Activation: RAT, LIVER, S-9, AROCLOR 1254 (10%), Method: PREINCUBATION
[3] = Test System: AMES SALMONELLA TYPHIMURIUM, Strain/Indicator: TA1535, Metabolic Activation: HAMSTER, LIVER, S-9, AROCLOR 1254 (10%), Method: PREINCUBATION
[4] = Test System: AMES SALMONELLA TYPHIMURIUM, Strain/Indicator: TA1535, Metabolic Activation: RAT, LIVER, S-9, AROCLOR 1254 (10%), Method: PREINCUBATION
[5] = Test System: AMES SALMONELLA TYPHIMURIUM, Strain/Indicator: TA98, Metabolic Activation: RAT, LIVER, S-9, AROCLOR 1254, Method: STANDARD PLATE
[6] = Test System: AMES SALMONELLA TYPHIMURIUM, Strain/Indicator: TA100, Metabolic Activation: RAT, LIVER, S-9, AROCLOR 1254, Method: STANDARD PLATE
[7] = Test System: AMES SALMONELLA TYPHIMURIUM, Strain/Indicator: TA98, Metabolic Activation: NONE, Method: STANDARD PLATE
[8] = Test System: AMES SALMONELLA TYPHIMURIUM, Strain/Indicator: TA1535, Metabolic Activation: NONE, Method: STANDARD PLATE
[9] = Test System: AMES SALMONELLA TYPHIMURIUM, Strain/Indicator: TA1535, Metabolic Activation: RAT, LIVER, S-9, AROCLOR 1254, Method: STANDARD PLATE
[10] = Test System: AMES SALMONELLA TYPHIMURIUM, Strain/Indicator: TA1537, Metabolic Activation: NONE, Method: STANDARD PLATE
[11] = Test System: AMES SALMONELLA TYPHIMURIUM, Strain/Indicator: TA1537, Metabolic Activation: RAT, LIVER, S-9, AROCLOR 1254, Method: STANDARD PLATE

Compound: Nc1ccccn1
- mutagenic call (Test System: AMES SALMONELLA TYPHIMURIUM, Strain/Indicator: TA98, Metabolic Activation: HAMSTER, LIVER, S-9, AROCLOR 1254 (10%), Method: PREINCUBATION): inactive; negative
- mutagenic call (Test System: AMES SALMONELLA TYPHIMURIUM, Strain/Indicator: TA98, Metabolic Activation: NONE, Method: PREINCUBATION): inactive; negative
- mutagenic call (Test System: AMES SALMONELLA TYPHIMURIUM, Strain/Indicator: TA98, Metabolic Activation: RAT, LIVER, S-9, AROCLOR 1254 (10%), Method: PREINCUBATION): inactive; negative
- mutagenic call [1]: inactive; negative
- mutagenic call (Test System: AMES SALMONELLA TYPHIMURIUM, Strain/Indicator: TA100, Metabolic Activation: NONE, Method: PREINCUBATION): inactive; negative
- mutagenic call [2]: inactive; negative
- mutagenic call [3]: inactive; negative
- mutagenic call (Test System: AMES SALMONELLA TYPHIMURIUM, Strain/Indicator: TA1535, Metabolic Activation: NONE, Method: PREINCUBATION): inactive; negative
- mutagenic call [4]: inactive; negative
- mutagenic call (Test System: AMES SALMONELLA TYPHIMURIUM, Strain/Indicator: TA1537, Metabolic Activation: HAMSTER, LIVER, S-9, AROCLOR 1254 (10%), Method: PREINCUBATION): inactive; negative
- mutagenic call (Test System: AMES SALMONELLA TYPHIMURIUM, Strain/Indicator: TA1537, Metabolic Activation: NONE, Method: PREINCUBATION): inactive; negative
- mutagenic call (Test System: AMES SALMONELLA TYPHIMURIUM, Strain/Indicator: TA1537, Metabolic Activation: RAT, LIVER, S-9, AROCLOR 1254 (10%), Method: PREINCUBATION): inactive; negative

Compound: Cc1ccc2c(c1)c(=NC(=O)c1cccc([N+](=O)[O-])c1)sn2C(=O)c1cccc([N+](=O)[O-])c1
- mutagenic call (Test System: AMES SALMONELLA TYPHIMURIUM, Strain/Indicator: TA100, Metabolic Activation: S-9, Method: STANDARD PLATE): active; positive

Compound: Cc1cccc2c1C(C)c1ccccc1-2 (centres undefined)
- mutagenic call [5]: active; positive
- mutagenic call [6]: active; positive

Compound: O=[N+]([O-])c1cccc(OS(=O)(=O)c2cccc3cccnc23)c1
- mutagenic call [7]: inactive; negative
- mutagenic call [5]: active; positive
- mutagenic call (Test System: AMES SALMONELLA TYPHIMURIUM, Strain/Indicator: TA100, Metabolic Activation: NONE, Method: STANDARD PLATE): inactive; negative
- mutagenic call [6]: active; positive
- mutagenic call [8]: inactive; negative
- mutagenic call [9]: inactive; negative
- mutagenic call [10]: inactive; negative
- mutagenic call [11]: inactive; negative

Compound: ClCC1CO1 (centres undefined)
- mutagenic call (End Point: IN VITRO CHROMOSOMAL ABERRATIONS, Test System: CHL CELLS, Metabolic Activation: NONE): active; positive (structural changes)
- mutagenic call (End Point: IN VITRO CHROMOSOMAL ABERRATIONS, Test System: CHL CELLS, Metabolic Activation: RAT, LIVER, S-9, SODIUM PHENOBARBITAL AND 5,6-BENZOFLAVONE): active; positive (structural changes)
- mutagenic call (Test System: AMES SALMONELLA TYPHIMURIUM, Strain/Indicator: G46, Metabolic Activation: NONE, Method: STANDARD PLATE): active; positive
- mutagenic call (Test System: AMES SALMONELLA TYPHIMURIUM, Strain/Indicator: TA97, Metabolic Activation: NONE, Method: STANDARD PLATE): active; positive
- mutagenic call (Test System: AMES SALMONELLA TYPHIMURIUM, Strain/Indicator: TA97, Metabolic Activation: RAT, LIVER, S-9, AROCLOR 1254, Method: STANDARD PLATE): inactive; negative
- mutagenic call [7]: inactive; negative
- mutagenic call (Test System: AMES SALMONELLA TYPHIMURIUM, Strain/Indicator: TA98, Metabolic Activation: RAT LIVER S-9, PHENOBARBITAL AND BETA-NAPHTHOFLAVONE, Method: PREINCUBATION): active; positive
- mutagenic call [5]: inactive; negative
- mutagenic call (Test System: AMES SALMONELLA TYPHIMURIUM, Strain/Indicator: TA98, Metabolic Activation: S-9, Method: PREINCUBATION): inactive; negative
- mutagenic call [1]: active; positive
- mutagenic call (Test System: AMES SALMONELLA TYPHIMURIUM, Strain/Indicator: TA100, Metabolic Activation: RAT LIVER S-9, PHENOBARBITAL AND BETA-NAPHTHOFLAVONE, Method: PREINCUBATION): active; positive
- mutagenic call [2]: active; positive
- mutagenic call (Test System: AMES SALMONELLA TYPHIMURIUM, Strain/Indicator: TA100, Metabolic Activation: S-9, Method: PREINCUBATION): active; positive
- mutagenic call (Test System: AMES SALMONELLA TYPHIMURIUM, Strain/Indicator: TA104, Metabolic Activation: NONE, Method: STANDARD PLATE): active; positive
- mutagenic call [3]: active; positive
- mutagenic call (Test System: AMES SALMONELLA TYPHIMURIUM, Strain/Indicator: TA1535, Metabolic Activation: NONE, Method: DESICCATOR): active; positive
- mutagenic call [8]: active; positive
- mutagenic call (Test System: AMES SALMONELLA TYPHIMURIUM, Strain/Indicator: TA1535, Metabolic Activation: RAT LIVER S-9, PHENOBARBITAL AND BETA-NAPHTHOFLAVONE, Method: PREINCUBATION): active; positive
- mutagenic call [4]: active; positive
- mutagenic call [9]: active; positive
- mutagenic call (Test System: AMES SALMONELLA TYPHIMURIUM, Strain/Indicator: TA1535, Metabolic Activation: S-9, Method: PREINCUBATION): active; positive
- mutagenic call [10]: inactive; negative
- mutagenic call (Test System: AMES SALMONELLA TYPHIMURIUM, Strain/Indicator: TA1537, Metabolic Activation: RAT LIVER S-9, PHENOBARBITAL AND BETA-NAPHTHOFLAVONE, Method: PREINCUBATION): inactive; negative
- mutagenic call [11]: inactive; negative
- mutagenic call (Test System: AMES SALMONELLA TYPHIMURIUM, Strain/Indicator: TA1537, Metabolic Activation: S-9, Method: PREINCUBATION): inactive; negative
- mutagenic call (Test System: AMES SALMONELLA TYPHIMURIUM, Strain/Indicator: TA4001, Metabolic Activation: NONE, Method: STANDARD PLATE): active; positive
- mutagenic call (Test System: AMES SALMONELLA TYPHIMURIUM, Strain/Indicator: TA4006, Metabolic Activation: NONE, Method: STANDARD PLATE): active; positive
- mutagenic call (Test System: CHINESE HAMSTER V-79, Strain/Indicator: V-79/6-THIOGUANINE, Metabolic Activation: NONE, Method: FLASK ASSAY): inactive; negative
- mutagenic call (Test System: E. COLI, Strain/Indicator: WP2, Metabolic Activation: NONE, Method: STANDARD PLATE): active; positive
- mutagenic call (Test System: E. COLI, Strain/Indicator: WP2, Metabolic Activation: RAT, LIVER, S-9, AROCLOR 1254, Method: STANDARD PLATE): active; positive
- mutagenic call (Test System: E. COLI, Strain/Indicator: WP2 UVRA, Metabolic Activation: NONE, Method: PREINCUBATION): active; positive
- mutagenic call (Test System: E. COLI, Strain/Indicator: WP2 UVRA, Metabolic Activation: NONE, Method: STANDARD PLATE): active; positive
- mutagenic call (Test System: E. COLI, Strain/Indicator: WP2 UVRA, Metabolic Activation: RAT, LIVER, S-9, AROCLOR 1254, Method: STANDARD PLATE): active; positive
- mutagenic call (Test System: E. COLI, Strain/Indicator: WP2 UVRA, Metabolic Activation: S-9, Method: PREINCUBATION): active; positive
- mutagenic call (Test System: E.COLI, Strain/Indicator: WP2UVRA, Metabolic Activation: NONE, Method: PREINCUBATION): active; positive
- mutagenic call (Test System: E.COLI, Strain/Indicator: WP2UVRA, Metabolic Activation: RAT LIVER S-9, PHENOBARBITAL AND BETA-NAPHTHOFLAVONE, Method: PREINCUBATION): active; positive
